Measurements published in patent US11572369B2, “Bicyclic pyridine compositions and methods of using the same for cancer therapy” (UNIVERSITY OF SOUTH CAROLINA, priority 2019, dated 2023).
Where two headings read alike, the source gives them in different places. Each block holds one compound with its values, some of them ahead of it.

Columns and labels:
Mouse PK, oral 1 mg/kg = assay type: in vivo; details: female, FVB, serum, mice, oral (gavage) 1 mg/kg; for bioavailability: read-out: Bioavailability (F %)
Mouse PK, intravenous = assay type: in vivo; details: female FVB mice, i.v. 0.5 mg/kg, mixture; for AUC / C0 / Vd / half-life: mouse, serum, iv
Description: Pharmacokinetics (PK) Assay. To measure mouse pharmacokinetics (PK), thienopyridine derivatives were dissolved in 5% dextrose and administered to female FVB mice at different dosing conditions; blood samples were collected at different time points and compound concentrations in the serum were measured by LC/MS/MS.

[1] = tested on: alkaline phosphatase (ALPase) in bone marrow stromal cell line ST2; details: cited from earlier work; for ALP activity Assay EC200: concentration that enhances ALPase activity to 200% of control, ST2 cells, Saito (2013)
CDK8/19 = assay: NFκB Activity Assay (NFκB luciferase reporter, parental 293 cells); assay type: cell-based
[2] = tested on: PSA expression in CRPC cell line C4-2; assay: PSA expression in C4-2 cell culture supernatant; assay type: cell-based; details: C4-2 culture supernatant, 4-day treatment, FBS-supplemented regular media, read-out: IC50, suppression of PSA expression
Text: CDK8/19 inhibition decreases the expression of certain androgen-receptor (AR) inducible genes including PSA, the most common marker of prostate cancer, and the growth of castration-refractory prostate cancers (CRPC).

[3] = Saito, 2013; cited from earlier work
in vivo = details: female, CD-1, mouse, serum, po
[4] = tested on: NFκB activation in CDK8/19-deficient cells; assay: NFκB reporter assay in CDK8/19 double-knockout 293 reporter cells; details: CDK8/19 double-knockout reporter cells
[5] = Oral PK in female CD-1 mice, solution formulation; details: oral gavage in solution, 30 mg/kg (15u series) or 16/18 mg/kg (15w series)
[6] = tested on: 4T1 murine triple-negative breast cancer; assay: 4T1 TNBC lung metastasis survival after primary tumor removal; assay type: in vivo, mouse; details: medicated food (350 ppm) plus one oral dose 50 mg/kg after removal of primary tumor
MYC-CAP-CR cells [7] = assay: Short-term cell proliferation assay, MYC-CAP-CR; assay type: cell-based, murine; details: androgen-containing media
MV4-11 cells = assay: MV4-11-Luc proliferation assay; details: Homo sapiens, MV4-11, read-out: Inhibition Potency MV4-11-Luc Assay
MYC-CAP-CR cells [8] = assay: Long-term clonogenic assay, MYC-CaP-CR; assay type: cell-based, murine
MYC-CaP-CR tumors = assay: MYC-CaP-CR subcutaneous tumors in intact FVB male mice; assay type: in vivo, mouse; details: intact (uncastrated) FVB male mice
[9] = parental 293-derived reporter cell line, read-out: NFκB activity Assay IC50
[10] = read-out: Inhibition Potency HEK293-NFkB-Luc Assay, read-out: Inhibition Potency HEK238-NFkB-Luc Assay

Structure (SMILES): NC(=O)c1sc2nccc(N3CCCN(c4ccccc4)CC3)c2c1N [15k]
AUC (Mouse PK, oral 1 mg/kg): 7.6 ng·h/mL
half-life (Mouse PK, oral 1 mg/kg): 18 min
bioavailability (Mouse PK, oral 1 mg/kg): 9%
Elimination rate (Mouse PK, intravenous): 4.59 h⁻¹
AUC (Mouse PK, intravenous): 40.8 ng·h/mL
C0 (Mouse PK, intravenous): 168 ng/mL
Vd (Mouse PK, intravenous): 2.98 L/kg
half-life (Mouse PK, intravenous): 9 min

Structure (SMILES): Cc1ccc(N2CCCN(c3ccnc4sc(C(N)=O)c(N)c34)CC2)cc1 [15n]
ALP activity Assay EC200 [1]: 88.1 nM
IC50 (CDK8/19; [9]): 0.0378 µM

Structure (SMILES): COc1ccc(N2CCCN(c3ccnc4sc(C(N)=O)c(N)c34)CC2)cc1 [15q]
ALP activity Assay EC200 [1]: 115.4 nM
IC50 (CDK8/19; [9]): 0.0431 µM

AUC (Mouse PK, oral 1 mg/kg): 21.8 ng·h/mL
Cmax (Mouse PK, oral 1 mg/kg): 7.2 ng/mL
half-life (Mouse PK, oral 1 mg/kg): 72 min
bioavailability (Mouse PK, oral 1 mg/kg): 18%
Elimination rate (Mouse PK, intravenous): 4.33 h⁻¹
AUC (Mouse PK, intravenous): 61.2 ng·h/mL
C0 (Mouse PK, intravenous): 234 ng/mL
Vd (Mouse PK, intravenous): 2.14 L/kg
half-life (Mouse PK, intravenous): 9.6 min
Structure (SMILES): CNC(=O)c1ccc(N2CCCN(c3ccnc4sc(C(N)=O)c(N)c34)CC2)cc1 [15v]
IC50 (CDK8/19; [10]): 0.0231 µM

IC50 ([2]; 96 h): 0.0157 µM
AUC (Mouse PK, oral 1 mg/kg): 29.2 ng·h/mL
half-life (Mouse PK, oral 1 mg/kg): 18 min
AUC(0-t) (in vivo; 16 mg/kg): 400 ng·h/mL
Structure (SMILES): CN(C)C(=O)Cc1ccc(N2CCCN(c3ccnc4sc(C(N)=O)c(N)c34)CC2)cc1 [15w, 3-amino-4-(4-(4-(2-(dimethylamino)-2-oxoethyl)phenyl)-1,4-diazepan-1-yl)thieno[2,3-b]pyridine-2-carboxamide]
pharmacokinetics [3]: poor pharmacokinetics (PK) with low Cmax
bone anabolic activity in a cell-based assay ([1]; Saito, 2013): highest bone anabolic activity
ALP activity Assay EC200 [1]: 6.6 nM
effect on NFκB activation in CDK8/19-deficient cells [4]: no effect
IC50 (CDK8/19; [10]): 0.0041 µM

AUC(0-t) (in vivo; 18 mg/kg): 380 ng·h/mL
PK (AUC 0-8 h) versus undeuterated parent [5]: did not improve the PK
Structure (SMILES): [2H]C([2H])(C(=O)N(C)C)c1ccc(N2CCCN(c3ccnc4sc(C(N)=O)c(N)c34)CC2)cc1 [15w_D2, 3-amino-4-(4-(4-(2-(dimethylamino)-2-oxoethyl-1,1-d2)phenyl)-1,4-diazepan-1-yl)thieno[2,3-b]pyridine-2-carboxamide]
IC50 (CDK8/19; [10]): 0.0088 µM

AUC(0-t) (in vivo; 16 mg/kg): 770 ng·h/mL
PK (AUC 0-8 h) versus undeuterated parent [5]: much improved the PK
Structure (SMILES): [2H]C([2H])([2H])N(C(=O)Cc1ccc(N2CCCN(c3ccnc4sc(C(N)=O)c(N)c34)CC2)cc1)C([2H])([2H])[2H] [15w_D6, 3-amino-4-(4-(4-(2-(bis(methyl-d3)amino)-2-oxoethyl)phenyl)-1,4-diazepan-1-yl)thieno[2,3-b]pyridine-2-carboxamide]
IC50 (CDK8/19; [10]): 0.0038 µM

Structure (SMILES): CN1CCN(C(=O)c2ccc3cc(CCNc4ncnc5ccc(C#N)cc45)ccc3c2)CC1 [Senexin B, reference compound]
IC50 [2]: 0.255 µM
mouse survival of the metastatic disease [6]: statistically significant but moderate increase in survival
MYC-CAP-CR cell growth (MYC-CAP-CR cells [7]): little effect

IC50 (MV4-11 cells): 0.083 µM
Structure (SMILES): NC(=O)c1sc2nccc(N3CCCN(c4ccc(C(=O)NCCCO)cc4)CC3)c2c1N [compound 6263]
IC50 (CDK8/19; [10]): 0.169 µM

AUC(0-t) (in vivo; 25 mg/kg): 470 ng·h/mL
IC50 (MV4-11 cells): 0.031 µM
Structure (SMILES): CN(CCCO)C(=O)c1ccc(N2CCCN(c3ccnc4sc(C(N)=O)c(N)c34)CC2)cc1 [compound 6264, 3-amino-4-(4-(4-((3-hydroxypropyl)(methyl)carbamoyl)phenyl)-1,4-diazepan-1-yl)thieno[2,3-b]pyridine-2-carboxamide]
IC50 (CDK8/19; [10]): 0.037 µM

IC50 (MV4-11 cells): 0.042 µM
Structure (SMILES): CN1CCN(C(=O)c2ccc(N3CCCN(c4ccnc5sc(C(N)=O)c(N)c45)CC3)cc2)CC1 [compound 6268]
IC50 (CDK8/19; [10]): 0.031 µM

IC50 (MV4-11 cells): 0.683 µM
Structure (SMILES): CN(C)C(=O)c1ccc(CN2CCCN(c3ccnc4sc(C(N)=O)c(N)c34)CC2)cc1 [compound 6269]
IC50 (CDK8/19; [10]): 1 µM

IC50 (MV4-11 cells): 0.079 µM
Structure (SMILES): NC(=O)c1sc2nccc(N3CCCN(c4ccc(C(=O)N5CCNCC5)cc4)CC3)c2c1N [compound 6271]
IC50 (CDK8/19; [10]): 0.233 µM

Structure (SMILES): CN(C)C(=O)c1ccc(N2CCCN(c3ccnc4[nH]c(C(N)=O)cc34)CC2)cc1 [compound 6284]
IC50 (CDK8/19; [10]): > 1 µM

Structure (SMILES): CN(CCCNC(=O)OC(C)(C)C)C(=O)c1ccc(N2CCCN(c3ccnc4sc(C(N)=O)c(N)c34)CC2)cc1 [compound 6292]
IC50 (CDK8/19; [10]): 0.594 µM

Structure (SMILES): CN(CCCN)C(=O)c1ccc(N2CCCN(c3ccnc4sc(C(N)=O)c(N)c34)CC2)cc1 [compound 6293]
IC50 (CDK8/19; [10]): 0.05 µM

Structure (SMILES): CN(C)C(=O)c1ccc(N2CCCN(c3ccnc4sc(C(N)=O)cc34)CC2)cc1 [compound 6296]
IC50 (CDK8/19; [10]): > 1 µM

Structure (SMILES): CN(C)C(=O)c1ccc(N2CCCN(c3ccnc4sc(C#N)c(N)c34)CC2)cc1 [compound 6298]
IC50 (CDK8/19; [10]): 0.379 µM

AUC(0-t) (in vivo; 30 mg/kg): 210 ng·h/mL
Structure (SMILES): CN1CCN(Cc2ccc(N3CCCN(c4ccnc5sc(C(N)=O)c(N)c45)CC3)cc2)CC1 [compound 6300, 3-amino-4-(4-(4-((4-methylpiperazin-1-yl)methyl)phenyl)-1,4-diazepan-1-yl)thieno[2,3-b]pyridine-2-carboxamide]
IC50 (CDK8/19; [10]): 0.0049 µM

AUC(0-t) (in vivo; 16 mg/kg): 2200 ng·h/mL
Structure (SMILES): Cc1cc(N2CCCN(c3ccc(C(=O)N(C)C)cc3)CC2)c2c(N)c(C(N)=O)sc2n1 [compound 6304, 3-amino-4-(4-(4-(dimethylcarbamoyl)phenyl)-1,4-diazepan-1-yl)-6-methylthieno[2,3-b]pyridine-2-carboxamide]
IC50 (CDK8/19; [10]): 0.0136 µM

Structure (SMILES): CN(C)C(=O)c1ccc(N2CCCN(c3ccnc4[nH]c(C(N)=O)c(N)c34)CC2)cc1 [compound 6307]
IC50 (CDK8/19; [10]): > 1 µM

Structure (SMILES): CN(C)C(=O)c1ccc(N2CCCN(c3ccnc4oc(C(N)=O)c(N)c34)CC2)cc1 [compound 6318]
IC50 (CDK8/19; [10]): > 1 µM

Structure (SMILES): CNC(=O)c1ccc(N2C(=S)N(c3ccc(C#N)c(C(F)(F)F)c3)C(=O)C2(C)C)cc1F [enzalutamide]
MYC-CaP-CR colony formation (MYC-CAP-CR cells [8]): decreased MYC-CaP-CR colony formation
tumor volume and weight (MYC-CaP-CR tumors): modest effect
MYC-CAP-CR cell growth (MYC-CAP-CR cells [7]): paradoxically stimulated the growth
